Measurements: patent US9556132B2, “Tetrazole derivatives and their use as potassium channel modulators” (SANIONA A/S, priority 2012, dated 2017)

Target: human IK (Homo sapiens (Human), UniProt O15554)
Assay: Inhibition of IK channels expressed in HEK293 cells, thallium (I) sensitive FLIPR assay
Type: cell-based
Settings: HEK293 cells over-expressing human IK; Tl+-sensitive BTC fluorescence (FLIPR); inhibition of activity induced by Ca2+-ionophore A23187
Experimental: Following experiment determines the ability of a test compound to inhibit the activity of IK channels heterologously expressed in human HEK293 cells, and was used as the primary screen. The ability is determined as per cent inhibition of the activity induced by addition of the Ca^2+-ionophore A23187 (considered a maximum response). The activity is determined using a standard thallium (I) sensitive assay, e.g. using a fluorometric method in a Fluorescent Image Plate Reader (FLIPR) as described below in more detail.
Full concentration/response curves are generated and IC50 values are calculated based on the degree of inhibition of the maximum response. IC50 values (Inhibitory Concentration) represent the concentration of the test substance at which 50% of the maximum channel activity is inhibited.
Human HEK293 cells over-expressing human IK are grown in culture medium (DMEM supplemented with 10% foetal bovine serum), in polystyrene culture flasks ([…]) in a humidified atmosphere of 5% CO2 in air, at 37° C. Cell confluence should be 80-90% on day of plating. Cells are rinsed with 4 mL of PBS (phosphate buffered saline) and incubated 2 min with 1 mL of Trypsin-EDTA. After addition of 25 mL of culture medium cells are re-suspended by trituration with a 25 mL pipette.
The cells are seeded at a density of ˜3×10^6 cells/mL (25 μL/well) in black-walled, clear bottom, 384-well plates pre-treated with 0.01 g/L poly-D-lysin (20 μL/well for ≧30 min). Plated cells were allowed to proliferate for 24 h before loading with dye.
BTC-AM ([…], Invitrogen) is added 25.5 μl DMSO. The BTC-AM stock solution (2 mM) is diluted to a final concentration of 2 μM in […] assay buffer (in mM: 140 Na^+-gluconate, 2.5 K^+-gluconate, 6 Ca2^+-gluconate, 1 Mg^2+ gluconate, 5 glucose, 10 HEPES, pH 7.3) containing 2 μM ouabain, 2 mM amaranth and 1 mM tartrazine.
The culture medium is aspirated from the wells, and 25 μl of the BTC-AM loading solution are added to each well. The cells are incubated at 37° C. for 60 min.
After the loading period, the Tl^+-sensitive BTC fluorescence signal is measured over time using a FLIPR.
• Temperature: Room temp. • First addition: 12 μl test or control compound after 15 sec at a rate of 30 μL/sec and starting height of 20 μL • Second addition: 12 μL stimulus buffer (Cl^− free assay buffer supplemented with 1 mM Tl2SO4, 5 μM A23187 as well as the quenchers amaranth (2 mM) and tartrazine (1 mM)) is added after an additional 3 minutes at a rate of 30 μL/sec and starting height of 30 μL • Reading intervals: First sequence—3 sec×5, 2 sec×24 and 5 sec×25 • Second sequence—1 sec×5, 2 sec×24 and 5 sec×36
Addition plates (compound plate and stimulus plate) are placed in positions 2 and 3, respectively. Cell plates are placed in position 1 and run using the “IK blocker (EtOH wash, two additions)” program. FLIPR will then take the appropriate measurements in accordance with the interval settings above. Fluorescence obtained after stimulation is corrected for the mean basal fluorescence (in Cl^− free assay buffer).
Full concentration/response curves are generated and IC50 values (“Inhibitory Concentration”, i.e. the concentration of the test substance at which 50% of the maximum channel activity is inhibited) are calculated. The responses are calculated based on peak values.

Row | Compound | IC50 [nM]
1 | Fc1ccccc1-c1ccccc1-c1nnnn1-c1ccccc1OC(F)F [Compound 58, 1-[2-(Difluoromethoxy)phenyl]-5-[2-(2-fluorophenyl)phenyl]-1H-1,2,3,4-tetrazole] | 1100
2 | Fc1ccccc1-n1nnnc1-c1ccccc1-c1ccccc1OC(F)F [Compound 5, 5-{2-[2-(Difluoromethoxy)phenyl]phenyl}-1-(2-fluorophenyl)-1H-1,2,3,4-tetrazole] | 290
3 | COc1ccccc1-c1ccccc1-c1nnnn1-c1ccccc1Cl [Compound 49, 1-(2-Chlorophenyl)-5-[2-(2-methoxyphenyl)phenyl]-1H-1,2,3,4-tetrazole] | 540
4 | COc1ccccc1-n1nnnc1-c1ccccc1-c1ccccc1F [Compound 54, 5-[2-(2-Fluorophenyl)phenyl]-1-(2-methoxyphenyl)-1H-1,2,3,4-tetrazole] | 780
5 | OCc1ccccc1-c1ccccc1-c1nnnn1-c1ccccc1F [Compound 28, (2-{2-[1-(2-Fluorophenyl)-1H-1,2,3,4-tetrazol-5-yl]phenyl}phenyl)methanol] | 770
6 | Oc1ccccc1-c1ccccc1-c1nnnn1-c1ccccc1F [Compound 2, 2-{2-[1-(2-Fluorophenyl)-1H-1,2,3,4-tetrazol-5-yl]phenyl}phenol] | 5900
